Assay results published in patent publication US11160871B2, “SSTR-targeted conjugates and particles and formulations thereof” (TARVEDA THERAPEUTICS, INC., priority 2015, dated 2021).
Where two headings read alike, the source gives them in different places.

Columns and labels:
[1] = system: panel of GPCRs (119 targets); assay: Off-target binding to a panel of GPCRs; details: 1 uM concentration
Protocol: To further study the off-target binding of Conjugate 57, the binding of Conjugate 57 to a panel of GPCRs (119 targets) was measured at 1 uM concentration. Conjugate 57 has no activity against the panel of GPCRs.

NCI-H69 SCLC tumors = assay: NCI-H69 SCLC xenografts, PH3 and CC3 after a single dose; type: in vivo, mice
Protocol: Conjugate 57 was assessed in an in vivo study with NCI-H69 SCLC xenografts model. A single 2 mg/kg dose of Conjugate 57 was administered to mice bearing NCI-H69 SCLC tumors. Levels of cell cycle arrest marker phosphohistone H3 (PH3) were measured at the periphery, middle and core of the tumors. Phosphorylated histone H3 is correlated chromosome condensation during both mitosis and meiosis. […] The biological effects from Conjugate 57 were seen deep in the tumor and distant from blood vessels. Cell death peaks at around 3 days after dosing. […] Conjugates of the present invention can rapidly and deeply penetrate tumor and can exert a prolonged effect on tumor biology.

NCI-H69 tumors = assay: NCI-H69 tumor volume study, 2 doses; type: in vivo, mice
Protocol: In another study, 10 mice bearing NCI-H69 tumors were given 2 doses of Conjugate 57 at 2 mg/kg each. 9 mice bearing NCI-H69 tumors were given 2 doses of Conjugate 57 at 1.3 mg/kg each. All 10 animals dosed at 2 mg/kg had no detectable tumors at study end. Conjugate 57 More than half (5 out of 9) animals dosed at 1.3 mg/kg had no detectable tumors at study end.

Plasma protein binding = type: in vitro ADME; details: for fraction unbound at 1 uM: read-out: Free fraction at 1 uM (%); for fraction unbound at 10 uM: read-out: Free fraction at 10 uM (%)
From the text: Plasma protein binding is not concentration dependent and is consistent across species.

CYP1A2 = CYP1A2 (Homo sapiens, UniProt P05177); assay: CYP inhibition; type: in vitro ADME
Protocol: (§1) In a further study, the potential for Conjugate 57 to inhibit cytochrome P450 (CYP) was tested across 7 isozymes of CYP enzymes. […] The data also indicate Conjugate 57 presents no risk for causing drug-drug interactions (DDIs) by inhibiting the CYP clearance of other drugs. Lack of DDIs is critical when developing combination therapies.

CYP2B6 = CYP2B6 (Homo sapiens, UniProt P20813); assay: CYP inhibition; type: in vitro ADME
Protocol: as §1

CYP2C19 = CYP2C19 (Homo sapiens, UniProt P33261); assay: CYP inhibition; type: in vitro ADME
Protocol: as §1

CYP2C8 = CYP2C8 (Homo sapiens, UniProt P10632); assay: CYP inhibition; type: in vitro ADME
Protocol: as §1

CYP2C9 = CYP2C9 (Homo sapiens, UniProt P11712); assay: CYP inhibition; type: in vitro ADME
Protocol: as §1

CYP2D6 = CYP2D6 (Homo sapiens, UniProt P10635); assay: CYP inhibition; type: in vitro ADME
Protocol: as §1

CYP3A4 = CYP3A4 (Homo sapiens, UniProt P08684); assay: CYP inhibition; type: in vitro ADME
Protocol: as §1

H69 tumors = assay: PD studies with H69 model, PH3 and CC3 by Western blot and IHC; type: in vivo
Protocol: PD studies were carried out with H69 model to determine the in vivo response of conjugate effects on tumor cells and timing/peak response. Conjugate 57 and Conjugate 57 in nanoparticles (Conjugate 57/NP20) were tested at 2 mg/kg. NP20 formulation has been described in EXAMPLE 2. Western blot and IHC staining were carried out to measure PH3 and CC3 levels.
PH3 is correlated chromosome condensation during both mitosis and meiosis. […] As shown in Western Blot results in FIG. 18A, the peak response for PH3 occurs at 48 hours for both the conjugate and the conjugate in the nanoparticle. […] PH3 level was steady for Conjugate 57/NP20 samples.
CC3 is a marker of apoptosis. It is the executioner of apoptosis and tightly regulated. A peak in activity is seen for both Conjugate 57 and Conjugate 57/NP20 at 72 hours (FIG. 19). The activity of Conjugate 57 is stronger as compared to Conjugate 57/NP20, consistent with the PH3 results.
Cell arrest as indicated by PH3 levels peaked at 48 hr and apoptosis as indicated by CC3 levels peaked at 72 hr.

H69 tumor = assay: Histological staining of PH3 and CC3 in periphery, middle and core of H69 tumor; type: in vivo
From the text: Histological staining of PH3 and CC3 in periphery, middle and core of H69 tumor after Conjugate 57 treatment was shown in FIG. 22A and FIG. 22B. The periphery sample was taken from roughly the outside ⅓ of the tumor. The core sample was taken from roughly the center ⅓ of the tumor. The middle sample was taken from roughly ⅓ in between these locations. Using a 40× high-powered objective, positively stained cells were counted, one field per animal, 3 animals per treatment group. Each field was roughly 500 μm in size. In general, the PH3 staining was strongest on the periphery and decreased as you moved towards the center of the tumor.

[2] = system: MCF-7 breast cancer cells; assay: MCF-7 cell proliferation; type: cell-based
Protocol: In an in vitro study, Conjugate 57 is given to MCF-7 breast cancer cells. Cell proliferation of the MCF-7 cells are measured.

Chain of CYP3A4 (P08684 whole entry): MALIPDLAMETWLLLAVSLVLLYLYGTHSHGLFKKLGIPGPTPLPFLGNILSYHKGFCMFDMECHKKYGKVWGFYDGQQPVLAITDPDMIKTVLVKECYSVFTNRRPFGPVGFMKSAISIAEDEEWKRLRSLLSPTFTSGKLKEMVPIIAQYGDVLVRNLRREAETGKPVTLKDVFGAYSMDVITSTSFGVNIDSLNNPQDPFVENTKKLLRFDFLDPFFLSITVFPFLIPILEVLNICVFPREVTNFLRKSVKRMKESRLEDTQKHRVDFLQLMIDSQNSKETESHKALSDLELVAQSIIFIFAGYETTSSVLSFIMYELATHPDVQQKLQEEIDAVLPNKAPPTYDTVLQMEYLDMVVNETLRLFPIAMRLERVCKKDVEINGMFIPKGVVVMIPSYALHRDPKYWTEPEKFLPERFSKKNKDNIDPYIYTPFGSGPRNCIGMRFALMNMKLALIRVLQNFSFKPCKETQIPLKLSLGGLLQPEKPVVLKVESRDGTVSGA
Chain of CYP2C8 (P10632 whole entry): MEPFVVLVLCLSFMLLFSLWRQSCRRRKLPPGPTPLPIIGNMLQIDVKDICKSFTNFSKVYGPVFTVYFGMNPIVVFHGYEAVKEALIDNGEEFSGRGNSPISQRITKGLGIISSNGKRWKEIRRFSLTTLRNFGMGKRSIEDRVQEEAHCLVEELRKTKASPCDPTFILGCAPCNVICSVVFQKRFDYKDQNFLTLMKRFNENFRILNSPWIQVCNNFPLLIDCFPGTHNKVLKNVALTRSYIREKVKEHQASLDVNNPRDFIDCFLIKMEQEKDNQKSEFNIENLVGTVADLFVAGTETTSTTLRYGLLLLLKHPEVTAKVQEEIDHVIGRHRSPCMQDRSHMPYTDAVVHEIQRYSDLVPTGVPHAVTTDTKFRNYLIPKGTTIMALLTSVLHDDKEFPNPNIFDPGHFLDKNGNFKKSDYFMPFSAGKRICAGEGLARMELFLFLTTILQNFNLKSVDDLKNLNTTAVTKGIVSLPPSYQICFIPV
Chain of CYP2B6 (P20813 whole entry): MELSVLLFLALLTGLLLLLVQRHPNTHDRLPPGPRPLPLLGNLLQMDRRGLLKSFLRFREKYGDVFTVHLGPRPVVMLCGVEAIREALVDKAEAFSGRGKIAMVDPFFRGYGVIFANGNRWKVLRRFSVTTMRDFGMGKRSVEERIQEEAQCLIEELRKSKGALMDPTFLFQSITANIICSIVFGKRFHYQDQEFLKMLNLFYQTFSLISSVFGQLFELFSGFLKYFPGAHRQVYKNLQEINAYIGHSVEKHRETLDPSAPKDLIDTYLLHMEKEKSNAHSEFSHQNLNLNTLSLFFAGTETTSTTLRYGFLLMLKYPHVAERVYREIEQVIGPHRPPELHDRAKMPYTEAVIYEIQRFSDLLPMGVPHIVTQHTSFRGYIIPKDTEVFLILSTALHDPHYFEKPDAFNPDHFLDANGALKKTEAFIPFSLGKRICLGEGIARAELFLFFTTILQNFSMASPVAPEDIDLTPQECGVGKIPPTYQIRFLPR
Chain of CYP1A2 (P05177 whole entry): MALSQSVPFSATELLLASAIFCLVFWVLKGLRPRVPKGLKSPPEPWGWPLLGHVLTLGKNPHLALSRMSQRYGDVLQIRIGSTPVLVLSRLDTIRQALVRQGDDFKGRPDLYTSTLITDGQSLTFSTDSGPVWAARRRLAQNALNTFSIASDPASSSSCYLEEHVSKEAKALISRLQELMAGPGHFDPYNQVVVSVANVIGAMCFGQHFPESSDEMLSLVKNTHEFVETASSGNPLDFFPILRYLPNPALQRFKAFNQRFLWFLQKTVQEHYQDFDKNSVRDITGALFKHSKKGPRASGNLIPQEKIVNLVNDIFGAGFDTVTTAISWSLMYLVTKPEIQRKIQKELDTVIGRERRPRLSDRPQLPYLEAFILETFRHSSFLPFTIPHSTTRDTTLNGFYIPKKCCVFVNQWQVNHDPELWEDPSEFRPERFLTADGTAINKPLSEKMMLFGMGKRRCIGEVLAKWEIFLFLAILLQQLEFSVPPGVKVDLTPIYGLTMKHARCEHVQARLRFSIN
Chain of CYP2C19 (P33261 whole entry): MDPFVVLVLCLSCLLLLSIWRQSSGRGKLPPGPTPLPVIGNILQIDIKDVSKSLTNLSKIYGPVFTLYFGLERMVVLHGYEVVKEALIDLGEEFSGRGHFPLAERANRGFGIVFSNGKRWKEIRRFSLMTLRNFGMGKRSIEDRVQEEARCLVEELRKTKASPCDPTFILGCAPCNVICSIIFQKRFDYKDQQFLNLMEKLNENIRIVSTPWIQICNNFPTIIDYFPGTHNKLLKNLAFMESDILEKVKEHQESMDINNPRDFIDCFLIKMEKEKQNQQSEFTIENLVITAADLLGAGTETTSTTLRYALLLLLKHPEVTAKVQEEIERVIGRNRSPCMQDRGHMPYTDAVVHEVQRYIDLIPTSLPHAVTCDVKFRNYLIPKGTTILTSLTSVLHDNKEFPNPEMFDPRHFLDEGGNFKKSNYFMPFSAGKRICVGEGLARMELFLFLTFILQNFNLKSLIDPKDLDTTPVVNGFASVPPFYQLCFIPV
Chain of CYP2C9 (P11712 whole entry): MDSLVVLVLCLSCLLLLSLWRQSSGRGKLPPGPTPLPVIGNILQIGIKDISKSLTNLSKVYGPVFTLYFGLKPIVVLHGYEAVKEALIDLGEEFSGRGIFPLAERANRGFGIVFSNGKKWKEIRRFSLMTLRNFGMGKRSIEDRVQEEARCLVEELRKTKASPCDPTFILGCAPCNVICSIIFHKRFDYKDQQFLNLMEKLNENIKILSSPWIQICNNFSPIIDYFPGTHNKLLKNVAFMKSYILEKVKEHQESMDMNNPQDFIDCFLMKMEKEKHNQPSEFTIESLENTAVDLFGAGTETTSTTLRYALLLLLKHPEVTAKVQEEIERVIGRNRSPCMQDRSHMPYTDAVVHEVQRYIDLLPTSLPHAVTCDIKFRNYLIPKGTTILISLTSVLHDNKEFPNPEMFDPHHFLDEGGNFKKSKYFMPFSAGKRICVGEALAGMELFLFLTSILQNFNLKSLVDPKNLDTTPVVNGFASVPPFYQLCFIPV
Chain of CYP2D6 (P10635 whole entry): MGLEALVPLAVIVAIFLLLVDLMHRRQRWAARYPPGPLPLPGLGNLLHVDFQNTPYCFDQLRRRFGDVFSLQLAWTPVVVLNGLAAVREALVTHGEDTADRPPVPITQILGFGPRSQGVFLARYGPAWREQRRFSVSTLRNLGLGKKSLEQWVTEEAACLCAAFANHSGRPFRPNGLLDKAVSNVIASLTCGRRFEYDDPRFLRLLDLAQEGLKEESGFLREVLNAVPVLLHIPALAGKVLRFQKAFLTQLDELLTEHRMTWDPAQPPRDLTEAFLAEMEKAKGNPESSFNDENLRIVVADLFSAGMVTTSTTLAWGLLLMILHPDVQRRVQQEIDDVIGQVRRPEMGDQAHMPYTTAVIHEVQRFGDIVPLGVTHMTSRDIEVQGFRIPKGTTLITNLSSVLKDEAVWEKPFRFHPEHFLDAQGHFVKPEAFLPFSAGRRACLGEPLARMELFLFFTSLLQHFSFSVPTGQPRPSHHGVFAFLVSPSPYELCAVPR

COc1cc2cc(c1Cl)N(C)C(=O)C[C@H](OC(=O)[C@H](C)N(C)C(=O)CCSSC[C@H](NC(=O)[C@@H]1CSSC[C@H](NC(=O)[C@H](N)Cc3ccccc3)C(=O)N[C@@H](Cc3ccc(O)cc3)C(=O)N[C@H](Cc3c[nH]c4ccccc34)C(=O)N[C@@H](CCCCN)C(=O)N[C@@H]([C@@H](C)O)C(=O)N1)C(N)=O)[C@]1(C)O[C@H]1[C@H](C)[C@@H]1C[C@@](O)(NC(=O)O1)[C@H](OC)/C=C/C=C(\C)C2 [Conjugate 57]
activity against the panel of GPCRs [1]: no activity
PH3 levels at periphery, middle and core of the tumors (NCI-H69 SCLC tumors; single 2 mg/kg dose): Elevated levels of PH3 are seen at all depths of the tumor through 72 h
time of peak cell death (cleaved caspase-3) (NCI-H69 SCLC tumors; single dose of 2 mg/kg): around 3 days
animals with no detectable tumors at study end (NCI-H69 tumors; 2 doses at 1.3 mg/kg each, 9 mice): 5 out of 9
animals with no detectable tumors at study end (NCI-H69 tumors; 2 doses at 2 mg/kg each, 10 mice): 10
fraction unbound at 1 uM (Plasma protein binding; Dog plasma): 0.044
fraction unbound at 10 uM (Plasma protein binding; Dog plasma): 0.033
fraction unbound at 1 uM (Plasma protein binding; Human plasma): 0.078
fraction unbound at 10 uM (Plasma protein binding; Human plasma): 0.078
fraction unbound at 1 uM (Plasma protein binding; Mouse plasma): 0.082
fraction unbound at 10 uM (Plasma protein binding; Mouse plasma): 0.094
fraction unbound at 1 uM (Plasma protein binding; Rat plasma): 0.063
fraction unbound at 10 uM (Plasma protein binding; Rat plasma): 0.074
IC50 (CYP1A2): > 10 µM
IC50 (CYP2B6): > 10 µM
IC50 (CYP2C19): > 10 µM
IC50 (CYP2C8): > 10 µM
IC50 (CYP2C9): > 10 µM
IC50 (CYP2D6): > 10 µM
IC50 (CYP3A4; CYP3A4 Midazolam): > 10 µM
IC50 (CYP3A4; CYP3A4 Testosterone): > 10 µM
time of PH3 signal peak, IHC (H69 tumors; 2 mg/kg): 48 h
time of peak in CC3 activity (H69 tumors; 2 mg/kg): 72 h
time of peak response for PH3, Western Blot (H69 tumors; 2 mg/kg): 48 h
time of peak of apoptosis as indicated by CC3 levels (fold change, FIG. 21) (H69 tumors; H69): 72 h
time of peak of cell arrest as indicated by PH3 levels (fold change, FIG. 21) (H69 tumors; H69): 48 h
Number of cells with positive CC3 stain, Core (H69 tumor; 24 h): 50.3
Number of cells with positive CC3 stain, Middle (H69 tumor; 24 h): 27.0
Number of cells with positive CC3 stain, Periphery (H69 tumor; 24 h): 9.7
Number of cells with positive PH3 stain, Core (H69 tumor; 24 h): 74.7
Number of cells with positive PH3 stain, Middle (H69 tumor; 24 h): 122.3
Number of cells with positive PH3 stain, Periphery (H69 tumor; 24 h): 158.3
Number of cells with positive CC3 stain, Core (H69 tumor; 72 h): 106.7
Number of cells with positive CC3 stain, Middle (H69 tumor; 72 h): 72.0
Number of cells with positive CC3 stain, Periphery (H69 tumor; 72 h): 41.0
Number of cells with positive PH3 stain, Core (H69 tumor; 72 h): 113.0
Number of cells with positive PH3 stain, Middle (H69 tumor; 72 h): 144.3
Number of cells with positive PH3 stain, Periphery (H69 tumor; 72 h): 215.7
proliferation of MCF-7 cells [2]: reduces the proliferation of MCF-7 cells
